# Results: patent US12544417B2, “Oral film and stick jelly for improving absorption in the oral mucosa, antioxidant activity, anti-inflammatory activity, and liver function of humans and companion animals” (ESTHER FORMULA CO., LTD., priority 2022, dated 2026)
# Assay: DPPH-free radical scavenging
# Format: biochemical
# Details: ascorbic acid 100 μg/mL, positive control group
# Protocol: 1% of the oral disintegrating film (Example 1-1), the oral mucosal adhesive film (Example 3-1), and the stick jelly (Example 4-1) were homogeneously dissolved, and centrifuged at 10,000 rpm and at 4° C. for 5 minutes to prepare a CFE (cell-free extract). 3.0 mL of a […] (DPPH) solution (5 mg/100 mL ethanol) was mixed with 500 μL of the prepared CFE, and the same amount of ethanol, MRS solution, and ascorbic acid (100 μg/mL) were used as a control group, a blank, and a comparative group, respectively. Then, the result was mixed with the DPPH solution and incubated in a dark room for 30 minutes, absorbance at 517 nm was measured, and the antioxidant activity was converted into % using Equation 1 below. [formula]
compound,measurement,value
O=C1O[C@H]([C@@H](O)CO)C(O)=C1O [ascorbic acid],DPPH-free radical scavenging (%),90%
